# Laboratory results taken from US11292792B2, “Tricyclic CRBN ligands and uses thereof” (Kymera Therapeutics, Inc., priority 2018, dated 2022).
# pIC50: −log10 of the molar value.
# Target: His-tagged CRBN-DDB1 complex (Homo sapiens (Human), UniProt Q96SW2)
# Assay: Time-resolved fluorescence resonance energy transfer (TR-FRET) assay, displacement of Cy5-labeled thalidomide
# Type: binding
# Conditions: not given
# Method: Equal volumes of His-tagged CRBN-DDB1 complex (56 nM) was mixed with Eu-cryptate labeled Anti-6HIS-monoclonal antibody (50× dilution from the commercial stock solution, Vender: Cisbio, Cat. #61HI2KLA) in a final buffer containing 20 mM HEPES pH 7.0, 150 mM NaCl, 0.005% Tween-20. […] The mixture were incubated at room temperature for 1 hour. FRET signals were measured on an EnVision plate reader (Perkin Elmer) by exciting at 340 nm and recording emission at both 615 nm as no FRET control and 665 nm as the FRET signals with a 60 microsecond delay. FRET efficiency was calculated as the ratio of fluorescent signals at […]. Quantitative loss of FRET efficiency as a function of compound concentrations was fitted by a four-parameter Logistic Function using GraphPad Prism 7.0 and the IC50 values were reported for each compound.
# The compound numbers correspond to the compound numbers in Table 1.
# Sequence of His-tagged CRBN-DDB1 complex (Q96SW2 whole entry): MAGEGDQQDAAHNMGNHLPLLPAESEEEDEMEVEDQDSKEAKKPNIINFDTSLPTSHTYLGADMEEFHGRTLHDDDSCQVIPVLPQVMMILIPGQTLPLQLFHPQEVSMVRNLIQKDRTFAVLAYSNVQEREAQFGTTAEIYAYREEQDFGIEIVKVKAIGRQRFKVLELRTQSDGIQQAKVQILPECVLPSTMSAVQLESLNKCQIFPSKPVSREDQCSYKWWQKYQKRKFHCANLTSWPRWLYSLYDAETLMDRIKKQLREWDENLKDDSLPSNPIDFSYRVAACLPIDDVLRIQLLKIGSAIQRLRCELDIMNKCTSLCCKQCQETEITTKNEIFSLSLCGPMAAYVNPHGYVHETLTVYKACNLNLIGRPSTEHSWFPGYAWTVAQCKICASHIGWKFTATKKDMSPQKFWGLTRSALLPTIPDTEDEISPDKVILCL
# Sequence of His-tagged CRBN-DDB1 complex (Q16531 whole entry partner): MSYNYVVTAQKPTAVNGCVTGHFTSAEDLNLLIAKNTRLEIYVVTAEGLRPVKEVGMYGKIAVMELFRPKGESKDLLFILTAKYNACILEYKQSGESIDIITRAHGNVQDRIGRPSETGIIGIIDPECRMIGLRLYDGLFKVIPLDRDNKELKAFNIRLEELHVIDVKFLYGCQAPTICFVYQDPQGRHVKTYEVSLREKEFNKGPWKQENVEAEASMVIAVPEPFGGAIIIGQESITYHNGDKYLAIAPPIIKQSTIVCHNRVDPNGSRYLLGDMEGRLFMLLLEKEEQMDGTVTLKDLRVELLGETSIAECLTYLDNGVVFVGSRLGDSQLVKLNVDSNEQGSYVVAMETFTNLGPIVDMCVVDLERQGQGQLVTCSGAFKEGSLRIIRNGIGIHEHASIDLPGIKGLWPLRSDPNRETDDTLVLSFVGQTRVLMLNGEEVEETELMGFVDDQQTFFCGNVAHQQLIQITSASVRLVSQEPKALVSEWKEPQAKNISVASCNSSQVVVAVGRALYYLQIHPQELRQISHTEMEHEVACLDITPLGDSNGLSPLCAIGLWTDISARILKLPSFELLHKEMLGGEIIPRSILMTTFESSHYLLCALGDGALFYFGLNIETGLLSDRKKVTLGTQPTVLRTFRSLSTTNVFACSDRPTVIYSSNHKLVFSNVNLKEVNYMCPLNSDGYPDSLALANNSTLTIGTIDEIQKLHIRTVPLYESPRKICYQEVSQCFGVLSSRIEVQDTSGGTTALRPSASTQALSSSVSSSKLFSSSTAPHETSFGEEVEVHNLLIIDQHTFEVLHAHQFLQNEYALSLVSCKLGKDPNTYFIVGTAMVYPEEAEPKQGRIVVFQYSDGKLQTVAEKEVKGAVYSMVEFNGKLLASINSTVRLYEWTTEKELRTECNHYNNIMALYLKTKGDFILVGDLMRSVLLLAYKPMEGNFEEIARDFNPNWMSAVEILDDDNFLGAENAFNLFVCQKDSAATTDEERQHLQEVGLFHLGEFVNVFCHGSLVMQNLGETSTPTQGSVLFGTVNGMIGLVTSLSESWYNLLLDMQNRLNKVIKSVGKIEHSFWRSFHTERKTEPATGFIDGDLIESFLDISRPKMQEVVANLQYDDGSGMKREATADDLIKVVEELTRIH
row,SMILES,pIC50
1,O=C1CCC(N2C(=O)CN=C(c3ccccc3)c3ccccc32)C(=O)N1 (stereo not drawn) [I-41],4.00 to 4.52

# Same assay, conditions: read-out: CRBN HTRF IC50
row,SMILES,pIC50
1,COc1ccc2c3ccccc3n(C3CCC(=O)NC3=O)c2n1 (stereo not drawn) [I-82],4.52 to 5.00
2,O=C1CCC(n2c3ccccc3n3ccnc23)C(=O)N1 (stereo not drawn) [I-99],4.00 to 4.52
3,O=C1CCC(n2c3ccccc3c3ccncc32)C(=O)N1 (stereo not drawn) [I-42],< 4.00
4,Nc1ccc2c3ccccc3n(C3CCC(=O)NC3=O)c2n1 (stereo not drawn) [I-78],> 5.00
5,"O=C1CCC(n2c3cc(Cl)ccc3c3cccnc32)C(=O)N1 (stereo not drawn) [I-106, 3-(7-chloro-9H-pyrido[2,3-b]indol-9-yl)piperidine-2,6-dione]",4.52 to 5.00
6,O=C1CCC(n2c3ccc(C#CCOCCOCCOCc4ccccc4)cc3c3cccnc32)C(=O)N1 (stereo not drawn) [I-47],> 5.00
7,"CCNC(=O)Nc1ccc2c(c1)c1cccnc1n2C1CCC(=O)NC1=O (stereo not drawn) [I-9, 1-(9-(2,6-Dioxopiperidin-3-yl)-9H-pyrido[2,3-b]indol-6-yl)-3-ethylurea]",> 5.00
8,O=C1CCC(n2c3c(c4cccnc42)CCCC3)C(=O)N1 (stereo not drawn) [I-70],4.52 to 5.00
9,"O=C1CCC(n2c3ccccc3c3c(Cl)csc32)C(=O)N1 (stereo not drawn) [I-93, 3-(3-chloro-8H-thieno[2,3-b]indol-8-yl)piperidine-2,6-dione]",> 5.00
10,O=C1CCC(n2c3cc(CCCOCCOCCO)ccc3c3cccnc32)C(=O)N1 (stereo not drawn) [I-53],4.52 to 5.00
11,O=C1CCC(n2c3ccccc3c3cncnc32)C(=O)N1 (stereo not drawn) [I-67],4.52 to 5.00
12,O=C1CCC(n2c3ccccc3c3ncsc32)C(=O)N1 (stereo not drawn) [I-87],> 5.00
13,"Nc1ccc2c(c1)c1cccnc1n2C1CCC(=O)NC1=O (stereo not drawn) [I-5, 3-(6-Amino-9H-pyrido[2,3-b]indol-9-yl)piperidine-2,6-dione]",> 5.00
14,"N#Cc1ccc2c3ccccc3n(C3CCC(=O)NC3=O)c2n1 (stereo not drawn) [I-81, 9-(2,6-dioxopiperidin-3-yl)-9H-pyrido[2,3-b]indole-2-carbonitrile]",4.52 to 5.00
15,"O=C1CCC(n2c3c(c4cccnc42)CN(Cc2ccccc2)CC3)C(=O)N1 (stereo not drawn) [I-55, 3-(6-benzyl-7,8-dihydro-5H-pyrrolo[2,3-b:4,5-c′]dipyridin-9(6H)-yl)piperidine-2,6-dione]",4.00 to 4.52
16,O=C1CCC(n2c3ccc(NCCOCCOCCOCc4ccccc4)cc3c3cccnc32)C(=O)N1 (stereo not drawn) [I-50],> 5.00
17,"CC(C)(C)OC(=O)N1CCN(CCc2ccc3c(c2)c2cccnc2n3C2CCC(=O)NC2=O)CC1 (stereo not drawn) [I-64, tert-butyl 4-(2-(9-(2,6-dioxopiperidin-3-yl)-9H-pyrido[2,3-b]indol-6-yl)ethyl)piperazine-1-carboxylate]",> 5.00
18,"CC(C)(C)OC(=O)NCCOCC#Cc1ccc2c(c1)c1cccnc1n2C1CCC(=O)NC1=O (stereo not drawn) [I-33, tert-Butyl (2-((3-(9-(2,6-dioxopiperidin-3-yl)-9H-pyrido[2,3-b]indol-6-yl)prop-2-yn-1-yl)oxy)ethyl)carbamate]",> 5.00
19,"Nc1cnc2c(c1)c1ccccc1n2C1CCC(=O)NC1=O (stereo not drawn) [I-39, 3-(3-amino-9H-pyrido[2,3-b]indol-9-yl)piperidine-2,6-dione]",> 5.00

row,SMILES,pIC50
1,O=C1CCC(n2c3ccc(Br)cc3c3ccsc32)C(=O)N1 (stereo not drawn) [I-88],> 5.00
2,O=C1CCC(n2c3ccccc3c3cnccc32)C(=O)N1 (stereo not drawn) [I-43],4.00 to 4.52
3,O=C1CCC(n2c3ccccc3c3ccc(C(F)(F)F)nc32)C(=O)N1 (stereo not drawn) [I-85],4.52 to 5.00
4,O=C1CCC(n2c3ccccc3c3ccc(Cl)nc32)C(=O)N1 (stereo not drawn) [I-75],> 5.00
5,O=C1CCC(n2c3cccc(C#CCOCCOCCOCc4ccccc4)c3c3cccnc32)C(=O)N1 (stereo not drawn) [I-52],> 5.00
6,"O=C1CCC(n2c3cc(Br)ccc3c3cccnc32)C(=O)N1 (stereo not drawn) [I-102, 3-3-(7-Bromopyrido[2,3-b]indol-9-yl)piperidine-2,6-dione]",4.52 to 5.00
7,CC(C)(C)OC(=O)NCCOCCOCCCc1cccc2c1c1cccnc1n2C1CCC(=O)NC1=O (stereo not drawn) [I-60],> 5.00
8,N#Cc1ccc2c(c1)c1cccnc1n2C1CCC(=O)NC1=O (stereo not drawn) [I-32],4.52 to 5.00
9,"CC(=O)Nc1ccc2c(c1)c1cccnc1n2C1CCC(=O)NC1=O (stereo not drawn) [I-8, N-(9-(2,6-Dioxopiperidin-3-yl)-9H-pyrido[2,3-b]indol-6-yl)acetamide]",> 5.00
10,"N#Cc1ccnc2c1c1ccccc1n2C1CCC(=O)NC1=O (stereo not drawn) [I-76, 9-(2,6-dioxopiperidin-3-yl)-9H-pyrido[2,3-b]indole-4-carbonitrile]",> 5.00
11,CC(C)(C)OC(=O)NCCOCCOCC#Cc1ccc2c(c1)c1cccnc1n2C1CCC(=O)NC1=O (stereo not drawn) [I-63],> 5.00
12,O=C1CCC(n2c3ccc(CCCOCCOCCO)cc3c3cccnc32)C(=O)N1 (stereo not drawn) [I-46],> 5.00
13,"NCc1ccc2c3ccccc3n(C3CCC(=O)NC3=O)c2n1 (stereo not drawn) [I-91, 3-(2-(aminomethyl)-9H-pyrido[2,3-b]indol-9-yl)piperidine-2,6-dione]",4.00 to 4.52
14,O=C1CCC(n2c3cccc(CCCOCCOCCO)c3c3cccnc32)C(=O)N1 (stereo not drawn) [I-51],> 5.00
15,"CC(C)(C)OC(=O)NCCOCCCc1ccc2c(c1)c1cccnc1n2C1CCC(=O)NC1=O (stereo not drawn) [I-34, tert-butyl (2-(3-(9-(2,6-dioxopiperidin-3-yl)-9H-pyrido[2,3-b]indol-6-yl)propoxy)ethyl)carbamate]",> 5.00
16,CN(CCCOCCCc1ccc2c(c1)c1cccnc1n2C1CCC(=O)NC1=O)C(=O)OC(C)(C)C (stereo not drawn) [I-44],> 5.00
17,CN(CCCOCC#Cc1ccc2c(c1)c1cccnc1n2C1CCC(=O)NC1=O)C(=O)OC(C)(C)C (stereo not drawn) [I-45],4.52 to 5.00
18,"NCCOCCOCCCc1cnc2c(c1)c1ccccc1n2C1CCC(=O)NC1=O (stereo not drawn) [I-59, 3-(3-(3-(2-(2-aminoethoxy)ethoxy)propyl)-9H-pyrido[2,3-b]indol-9-yl)piperidine-2,6-dione]",> 5.00
19,"O=C1CCC(n2c3ccccc3c3c(Br)csc32)C(=O)N1 (stereo not drawn) [I-89, 3-(3-bromo-8H-thieno[2,3-b]indol-8-yl)piperidine-2,6-dione]",> 5.00
